Assay results published in publication PMC11167047 (Cell Death Discovery, 2024).

Columns and labels:
Experiment in all cases: kinome screen (33PanQinase)
Type in all cases: biochemical
EIF2AK2 = molecular target: T1, EIF2AK2 (Homo sapiens, UniProt P19525)
T1 construct: purchased Reaction Biology Europe GmbH (formerly ProQinase)
Experimental: (§1) The Kinome Screening was performed by Reaction Biology Europe GmbH (http://reactionbiology.com; Freiburg i. Br., Germany).

NEK7 = molecular target: T2, NEK7 (Homo sapiens, UniProt Q8TDX7)
T2 construct: purchased Reaction Biology Europe GmbH (formerly ProQinase)
T2 sequence (Q8TDX7 whole entry): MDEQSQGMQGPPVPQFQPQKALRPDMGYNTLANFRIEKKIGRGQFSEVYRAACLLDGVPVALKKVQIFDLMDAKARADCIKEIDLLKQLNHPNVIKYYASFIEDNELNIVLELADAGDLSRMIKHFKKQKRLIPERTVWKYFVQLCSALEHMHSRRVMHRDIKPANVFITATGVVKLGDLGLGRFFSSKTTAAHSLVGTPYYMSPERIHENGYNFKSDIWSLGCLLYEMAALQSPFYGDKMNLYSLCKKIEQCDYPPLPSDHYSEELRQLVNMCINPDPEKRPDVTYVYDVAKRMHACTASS
Experimental: as §1

STK39 = molecular target: T3, STK39 (Homo sapiens, UniProt Q9UEW8)
T3 construct: purchased Reaction Biology Europe GmbH (formerly ProQinase)
Experimental: as §1

PKCζ = molecular target: T4, PKCζ (Homo sapiens, UniProt Q05513)
T4 construct: purchased Reaction Biology Europe GmbH (formerly ProQinase)
T4 sequence (Q05513 1-592): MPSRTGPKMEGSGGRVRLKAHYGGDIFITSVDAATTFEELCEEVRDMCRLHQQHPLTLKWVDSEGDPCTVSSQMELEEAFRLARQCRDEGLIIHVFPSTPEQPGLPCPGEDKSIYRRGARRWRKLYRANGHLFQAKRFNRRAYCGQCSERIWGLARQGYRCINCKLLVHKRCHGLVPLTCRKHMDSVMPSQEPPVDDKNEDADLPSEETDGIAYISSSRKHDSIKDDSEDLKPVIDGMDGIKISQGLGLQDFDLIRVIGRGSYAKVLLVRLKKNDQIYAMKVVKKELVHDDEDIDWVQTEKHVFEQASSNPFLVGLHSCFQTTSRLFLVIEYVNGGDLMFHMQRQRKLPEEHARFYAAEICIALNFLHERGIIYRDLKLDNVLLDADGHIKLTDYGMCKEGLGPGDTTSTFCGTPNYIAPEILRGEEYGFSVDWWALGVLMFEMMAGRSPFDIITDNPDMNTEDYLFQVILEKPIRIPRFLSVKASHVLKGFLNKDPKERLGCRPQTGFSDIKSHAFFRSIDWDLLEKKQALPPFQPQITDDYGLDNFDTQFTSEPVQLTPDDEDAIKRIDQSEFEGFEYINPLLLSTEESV
Experimental: as §1

INSR = molecular target: T5, INSR (Homo sapiens, UniProt P06213)
T5 construct: purchased Reaction Biology Europe GmbH (formerly ProQinase)
T5 sequence (P06213 28-1382): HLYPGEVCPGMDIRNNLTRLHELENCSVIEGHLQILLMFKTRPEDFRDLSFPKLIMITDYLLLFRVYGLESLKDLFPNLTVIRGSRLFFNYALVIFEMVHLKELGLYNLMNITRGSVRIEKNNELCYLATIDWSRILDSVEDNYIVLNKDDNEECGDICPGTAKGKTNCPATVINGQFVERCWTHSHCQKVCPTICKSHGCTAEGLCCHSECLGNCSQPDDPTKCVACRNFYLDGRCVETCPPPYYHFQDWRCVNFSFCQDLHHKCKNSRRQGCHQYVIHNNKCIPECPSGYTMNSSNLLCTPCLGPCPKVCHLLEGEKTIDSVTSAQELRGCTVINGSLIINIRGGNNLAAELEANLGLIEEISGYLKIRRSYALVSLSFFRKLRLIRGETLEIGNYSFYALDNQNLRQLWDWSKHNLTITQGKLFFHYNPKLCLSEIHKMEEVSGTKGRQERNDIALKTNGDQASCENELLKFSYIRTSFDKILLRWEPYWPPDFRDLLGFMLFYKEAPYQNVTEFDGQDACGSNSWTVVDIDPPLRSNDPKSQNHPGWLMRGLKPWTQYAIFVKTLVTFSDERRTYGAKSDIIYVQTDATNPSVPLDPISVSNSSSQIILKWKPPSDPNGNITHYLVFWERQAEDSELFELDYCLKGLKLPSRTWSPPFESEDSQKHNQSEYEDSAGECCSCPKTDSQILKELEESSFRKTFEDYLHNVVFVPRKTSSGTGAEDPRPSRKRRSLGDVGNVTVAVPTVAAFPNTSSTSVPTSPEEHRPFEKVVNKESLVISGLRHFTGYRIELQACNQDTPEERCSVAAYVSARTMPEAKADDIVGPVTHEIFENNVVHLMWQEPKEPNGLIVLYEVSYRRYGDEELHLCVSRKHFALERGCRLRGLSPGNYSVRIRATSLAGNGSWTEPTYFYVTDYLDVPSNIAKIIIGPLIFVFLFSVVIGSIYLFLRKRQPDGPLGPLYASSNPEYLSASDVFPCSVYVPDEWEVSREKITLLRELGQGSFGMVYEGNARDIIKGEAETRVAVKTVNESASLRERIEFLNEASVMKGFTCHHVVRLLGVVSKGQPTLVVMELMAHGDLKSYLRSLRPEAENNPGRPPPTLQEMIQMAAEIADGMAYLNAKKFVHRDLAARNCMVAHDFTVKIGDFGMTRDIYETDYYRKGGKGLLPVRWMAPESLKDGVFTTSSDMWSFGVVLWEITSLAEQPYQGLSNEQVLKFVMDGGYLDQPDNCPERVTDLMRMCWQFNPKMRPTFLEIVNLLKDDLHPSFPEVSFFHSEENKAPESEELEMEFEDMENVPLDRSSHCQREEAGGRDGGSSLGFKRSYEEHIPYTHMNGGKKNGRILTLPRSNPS
Experimental: as §1

EPHA3 = molecular target: T6, EPHA3 (Homo sapiens, UniProt P29320)
T6 construct: purchased Reaction Biology Europe GmbH (formerly ProQinase)
T6 sequence (P29320 21-983): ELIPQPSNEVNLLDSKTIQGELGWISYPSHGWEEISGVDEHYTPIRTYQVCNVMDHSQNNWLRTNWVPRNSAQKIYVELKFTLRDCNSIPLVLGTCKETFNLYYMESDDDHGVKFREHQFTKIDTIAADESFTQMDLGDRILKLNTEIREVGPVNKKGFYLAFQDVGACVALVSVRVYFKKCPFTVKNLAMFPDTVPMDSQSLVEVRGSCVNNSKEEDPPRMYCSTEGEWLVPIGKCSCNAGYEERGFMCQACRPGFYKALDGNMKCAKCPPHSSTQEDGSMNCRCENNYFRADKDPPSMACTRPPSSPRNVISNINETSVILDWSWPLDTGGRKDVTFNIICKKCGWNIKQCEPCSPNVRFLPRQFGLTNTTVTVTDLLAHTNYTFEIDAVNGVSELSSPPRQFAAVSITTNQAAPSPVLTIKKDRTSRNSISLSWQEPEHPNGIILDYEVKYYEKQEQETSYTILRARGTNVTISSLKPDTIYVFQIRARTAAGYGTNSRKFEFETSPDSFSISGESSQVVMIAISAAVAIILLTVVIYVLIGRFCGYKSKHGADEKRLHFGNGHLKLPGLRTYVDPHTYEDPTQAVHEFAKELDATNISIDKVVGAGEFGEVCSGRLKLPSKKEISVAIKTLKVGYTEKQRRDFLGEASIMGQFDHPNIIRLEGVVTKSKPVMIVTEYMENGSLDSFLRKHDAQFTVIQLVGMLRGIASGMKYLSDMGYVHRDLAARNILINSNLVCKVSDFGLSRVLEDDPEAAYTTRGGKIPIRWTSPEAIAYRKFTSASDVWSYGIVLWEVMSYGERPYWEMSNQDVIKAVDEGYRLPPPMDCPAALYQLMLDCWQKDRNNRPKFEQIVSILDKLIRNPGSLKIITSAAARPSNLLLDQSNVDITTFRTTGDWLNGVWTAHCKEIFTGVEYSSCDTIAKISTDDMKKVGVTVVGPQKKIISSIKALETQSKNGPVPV
Experimental: as §1

MST4 = molecular target: T7, MST4 (Homo sapiens, UniProt Q9P289)
T7 construct: purchased Reaction Biology Europe GmbH (formerly ProQinase)
T7 sequence (Q9P289 whole entry): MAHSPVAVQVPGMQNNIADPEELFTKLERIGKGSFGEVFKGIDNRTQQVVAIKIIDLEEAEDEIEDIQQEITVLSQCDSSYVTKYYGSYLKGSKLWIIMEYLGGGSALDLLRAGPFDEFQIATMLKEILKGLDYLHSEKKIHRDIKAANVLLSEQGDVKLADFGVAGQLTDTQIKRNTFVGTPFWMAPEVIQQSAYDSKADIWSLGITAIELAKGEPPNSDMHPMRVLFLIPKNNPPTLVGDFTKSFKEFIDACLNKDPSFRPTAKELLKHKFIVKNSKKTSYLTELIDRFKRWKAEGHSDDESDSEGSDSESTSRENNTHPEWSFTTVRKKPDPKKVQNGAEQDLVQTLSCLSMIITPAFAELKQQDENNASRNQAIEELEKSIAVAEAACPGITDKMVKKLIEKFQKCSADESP
Experimental: as §1

MAP4K2 = molecular target: T8, MAP4K2 (Homo sapiens, UniProt Q12851)
T8 construct: purchased Reaction Biology Europe GmbH (formerly ProQinase)
T8 sequence (Q12851 1-820): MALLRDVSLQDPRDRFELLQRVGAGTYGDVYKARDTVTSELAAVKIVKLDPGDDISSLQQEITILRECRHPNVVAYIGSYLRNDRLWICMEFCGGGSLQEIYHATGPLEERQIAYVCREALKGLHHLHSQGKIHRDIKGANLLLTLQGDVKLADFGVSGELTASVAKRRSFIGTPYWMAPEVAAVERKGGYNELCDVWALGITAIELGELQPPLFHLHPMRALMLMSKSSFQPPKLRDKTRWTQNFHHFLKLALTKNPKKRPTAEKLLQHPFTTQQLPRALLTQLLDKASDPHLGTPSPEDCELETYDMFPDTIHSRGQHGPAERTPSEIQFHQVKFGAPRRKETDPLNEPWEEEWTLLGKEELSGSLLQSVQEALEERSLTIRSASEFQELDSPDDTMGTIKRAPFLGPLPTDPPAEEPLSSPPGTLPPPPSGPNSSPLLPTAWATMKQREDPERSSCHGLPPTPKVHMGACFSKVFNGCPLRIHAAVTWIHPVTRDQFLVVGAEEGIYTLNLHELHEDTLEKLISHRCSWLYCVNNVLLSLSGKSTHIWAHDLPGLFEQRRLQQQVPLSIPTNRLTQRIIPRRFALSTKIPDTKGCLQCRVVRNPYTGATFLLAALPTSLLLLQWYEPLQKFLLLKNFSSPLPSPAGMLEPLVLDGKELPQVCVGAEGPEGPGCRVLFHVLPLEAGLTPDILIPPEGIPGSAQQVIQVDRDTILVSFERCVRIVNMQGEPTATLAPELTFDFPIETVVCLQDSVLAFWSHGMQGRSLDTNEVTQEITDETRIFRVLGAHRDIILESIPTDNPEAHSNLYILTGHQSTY
Experimental: as §1

PIM2 = molecular target: T9, PIM2 (Homo sapiens, UniProt Q9P1W9)
T9 construct: purchased Reaction Biology Europe GmbH (formerly ProQinase)
T9 sequence (Q9P1W9 whole entry): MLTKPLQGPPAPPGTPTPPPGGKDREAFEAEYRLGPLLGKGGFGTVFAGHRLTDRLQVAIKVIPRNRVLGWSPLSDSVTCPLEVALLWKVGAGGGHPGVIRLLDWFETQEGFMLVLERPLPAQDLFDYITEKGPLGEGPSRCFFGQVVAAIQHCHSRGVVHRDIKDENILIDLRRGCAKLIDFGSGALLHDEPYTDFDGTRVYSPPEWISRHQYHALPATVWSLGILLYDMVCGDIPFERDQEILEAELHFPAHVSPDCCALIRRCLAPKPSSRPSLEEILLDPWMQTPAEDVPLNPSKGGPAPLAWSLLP
Experimental: as §1

T1 sequence (P19525 whole entry): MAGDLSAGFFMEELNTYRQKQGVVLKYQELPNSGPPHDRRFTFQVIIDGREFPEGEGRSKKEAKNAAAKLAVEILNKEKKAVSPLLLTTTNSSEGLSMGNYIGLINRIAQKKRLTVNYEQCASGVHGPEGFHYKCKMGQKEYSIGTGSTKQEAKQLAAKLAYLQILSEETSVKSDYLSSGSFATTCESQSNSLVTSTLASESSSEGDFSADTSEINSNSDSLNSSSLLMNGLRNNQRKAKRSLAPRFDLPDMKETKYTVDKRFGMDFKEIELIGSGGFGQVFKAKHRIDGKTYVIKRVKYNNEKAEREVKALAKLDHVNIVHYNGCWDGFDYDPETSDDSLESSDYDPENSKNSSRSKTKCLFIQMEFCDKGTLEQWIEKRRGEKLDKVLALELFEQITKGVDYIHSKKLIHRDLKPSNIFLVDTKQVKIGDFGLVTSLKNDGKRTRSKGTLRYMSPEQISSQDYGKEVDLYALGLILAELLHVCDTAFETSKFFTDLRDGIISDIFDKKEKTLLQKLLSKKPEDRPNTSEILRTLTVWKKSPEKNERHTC

| SMILES | residual kinase activity (EIF2AK2; 0.3 µM) | residual kinase activity (NEK7; 0.3 µM) | residual kinase activity (STK39; 0.3 µM) | residual kinase activity (PKCζ; 0.3 µM) | residual kinase activity (INSR; 0.3 µM) | residual kinase activity (EPHA3; 0.3 µM) | residual kinase activity (MST4; 0.3 µM) | residual kinase activity (MAP4K2; 0.3 µM) | residual kinase activity (PIM2; 0.3 µM) | also measured |
| --- | --- | --- | --- | --- | --- | --- | --- | --- | --- | --- |
| COc1ccnc2[nH]cc(-c3cc(N)nc(N)c3)c12 [meriolin 16] | 95 % of control | 96 % of control | 66 % of control | 78 % of control | 91 % of control | 94 % of control | 81 % of control | 4 % of control | 83 % of control | residual kinase activity (EIF2AK2; 0.03 µM): 83 % of control; residual kinase activity (NEK7; 0.03 µM): 111 % of control; residual kinase activity (STK39; 0.03 µM): 77 % of control; residual kinase activity (PKCζ; 0.03 µM): 97 % of control; residual kinase activity (INSR; 0.03 µM): 96 % of control; residual kinase activity (EPHA3; 0.03 µM): 102 % of control; residual kinase activity (MST4; 0.03 µM): 78 % of control; residual kinase activity (MAP4K2; 0.03 µM): 22 % of control; residual kinase activity (PIM2; 0.03 µM): 115 % of control |
| c1ccc(CNc2cc(-c3c[nH]c4ncccc34)ccn2)cc1 [meriolin 36] | 79 % of control | 103 % of control | 40 % of control | 85 % of control | 82 % of control | 111 % of control | 52 % of control | 3 % of control | 119 % of control | residual kinase activity (EIF2AK2; 3 µM): 63 % of control; residual kinase activity (NEK7; 3 µM): 107 % of control; residual kinase activity (STK39; 3 µM): 19 % of control; residual kinase activity (PKCζ; 3 µM): 29 % of control; residual kinase activity (INSR; 3 µM): 36 % of control; residual kinase activity (EPHA3; 3 µM): 103 % of control; residual kinase activity (MST4; 3 µM): 12 % of control; residual kinase activity (MAP4K2; 3 µM): 0 % of control; residual kinase activity (PIM2; 3 µM): 90 % of control |
